What was measured:
Test in all cases: relative viability (nuclei count vs DMSO), 5 days (fraction); higher = more cells survive
Linifanib + Linsitinib = compound: Cc1ccc(F)c(NC(=O)Nc2ccc(-c3cccc4[nH]nc(N)c34)cc2)c1 [Linifanib] + C[C@]1(O)C[C@@H](c2nc(-c3ccc4ccc(-c5ccccc5)nc4c3)c3c(N)nccn32)C1 [Linsitinib] (partner 1 µM)
Method in brief: (§1)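 A single step with final 0.05% Triton X-100, 1% formaldehyde and 1 ug/ml Hoechst fixed the cells and stained nuclei 5 days after treatment. Lung cancer cell lines in 1536-well plates had been treated by pin tool the day after seeding with one drug alone or a fixed anchor-drug dose plus five library-drug doses (not always all listed) in √10 steps, and nuclei were counted on 4× images. Relative viability is the ratio of nuclei in treated wells to nuclei in vehicle wells, taken as the median of duplicate plates.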

Linifanib + Olaparib = compound: Cc1ccc(F)c(NC(=O)Nc2ccc(-c3cccc4[nH]nc(N)c34)cc2)c1 [Linifanib] + O=C(c1cc(Cc2n[nH]c(=O)c3ccccc23)ccc1F)N1CCN(C(=O)C2CC2)CC1 [Olaparib] (partner 8 µM)
Method in brief: as §1

Linifanib + Foretinib = compound: Cc1ccc(F)c(NC(=O)Nc2ccc(-c3cccc4[nH]nc(N)c34)cc2)c1 [Linifanib] + COc1cc2c(Oc3ccc(NC(=O)C4(C(=O)Nc5ccc(F)cc5)CC4)cc3F)ccnc2cc1OCCCN1CCOCC1 [Foretinib] (partner 0.25 µM)
Method in brief: as §1

Linifanib + Pictilisib = compound: Cc1ccc(F)c(NC(=O)Nc2ccc(-c3cccc4[nH]nc(N)c34)cc2)c1 [Linifanib] + CS(=O)(=O)N1CCN(Cc2cc3nc(-c4cccc5[nH]ncc45)nc(N4CCOCC4)c3s2)CC1 [Pictilisib] (partner 1 µM)
Method in brief: as §1

Linifanib + Alpelisib = compound: Cc1ccc(F)c(NC(=O)Nc2ccc(-c3cccc4[nH]nc(N)c34)cc2)c1 [Linifanib] + Cc1nc(NC(=O)N2CCC[C@H]2C(N)=O)sc1-c1ccnc(C(C)(C)C(F)(F)F)c1 [Alpelisib] (partner 2 µM)
Method in brief: as §1

Linifanib + Bortezomib = compound: Cc1ccc(F)c(NC(=O)Nc2ccc(-c3cccc4[nH]nc(N)c34)cc2)c1 [Linifanib] + CC(C)C[C@H](NC(=O)[C@H](Cc1ccccc1)NC(=O)c1cnccn1)B(O)O [Bortezomib] (partner 0.002 µM)
Method in brief: as §1

Linifanib + Lapatinib = compound: Cc1ccc(F)c(NC(=O)Nc2ccc(-c3cccc4[nH]nc(N)c34)cc2)c1 [Linifanib] + CS(=O)(=O)CCNCc1ccc(-c2ccc3ncnc(Nc4ccc(OCc5cccc(F)c5)c(Cl)c4)c3c2)o1 [Lapatinib] (partner 2 µM)
Method in brief: as §1

Linifanib + Crizotinib = compound: Cc1ccc(F)c(NC(=O)Nc2ccc(-c3cccc4[nH]nc(N)c34)cc2)c1 [Linifanib] + C[C@@H](Oc1cc(-c2cnn(C3CCNCC3)c2)cnc1N)c1c(Cl)ccc(F)c1Cl [Crizotinib] (partner 1 µM)
Method in brief: as §1

Linifanib + Navitoclax = compound: Cc1ccc(F)c(NC(=O)Nc2ccc(-c3cccc4[nH]nc(N)c34)cc2)c1 [Linifanib] + CC1(C)CCC(c2ccc(Cl)cc2)=C(CN2CCN(c3ccc(C(=O)NS(=O)(=O)c4ccc(N[C@H](CCN5CCOCC5)CSc5ccccc5)c(S(=O)(=O)C(F)(F)F)c4)cc3)CC2)C1 [Navitoclax] (partner 0.5 µM)
Method in brief: as §1

Linifanib = compound: Cc1ccc(F)c(NC(=O)Nc2ccc(-c3cccc4[nH]nc(N)c34)cc2)c1 [Linifanib]
Method in brief: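 Viability here means nuclei in treated wells divided by nuclei in vehicle wells, reported as the median across plates. Only plates with control CV below 25% and at least one doubling passed. Lung cancer cell lines in 1536-well plates were exposed to five √10-spaced library-drug doses for 5 days and counted from 4× Hoechst images in MetaXpress.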

**Q.** For Calu-6, which relative viability (Linifanib + Linsitinib; first compound 0.03162 µM) is on record?
**A.** Its relative viability is 1.01.

**Q.** What about the relative viability (Linifanib + Linsitinib; first compound 0.1 µM) of the same cell line?
**A.** Its relative viability is 0.919.

**Q.** And the relative viability (Linifanib + Linsitinib; first compound 0.3162 µM)?
**A.** Its relative viability is 0.969.

**Q.** What about the relative viability (Linifanib + Olaparib; first compound 0.03162 µM) of the same cell line?
**A.** The relative viability was 0.539.

**Q.** And the relative viability (Linifanib + Olaparib; first compound 0.1 µM)?
**A.** Its relative viability is 0.602.

**Q.** And the relative viability (Linifanib + Olaparib; first compound 0.3162 µM)?
**A.** Its relative viability is 0.565.

**Q.** And the relative viability (Linifanib + Foretinib; first compound 0.03162 µM)?
**A.** The relative viability was 0.812.

**Q.** What about the relative viability (Linifanib + Foretinib; first compound 0.1 µM) of the same cell line?
**A.** The relative viability was 0.95.

**Q.** And the relative viability (Linifanib + Foretinib; first compound 0.3162 µM)?
**A.** Its relative viability is 0.881.

**Q.** And the relative viability (Linifanib + Pictilisib; first compound 0.03162 µM)?
**A.** Its relative viability is 0.93.

**Q.** What about the relative viability (Linifanib + Pictilisib; first compound 0.1 µM) of the same cell line?
**A.** Its relative viability is 0.995.

**Q.** What about the relative viability (Linifanib + Pictilisib; first compound 0.3162 µM) of the same cell line?
**A.** The relative viability was 0.892.

**Q.** And the relative viability (Linifanib + Alpelisib; first compound 0.03162 µM)?
**A.** Its relative viability is 1.08.

**Q.** What about the relative viability (Linifanib + Alpelisib; first compound 0.1 µM) of the same cell line?
**A.** The relative viability was 1.05.

**Q.** And the relative viability (Linifanib + Alpelisib; first compound 0.3162 µM)?
**A.** The relative viability was 1.01.

**Q.** What about the relative viability (Linifanib + Bortezomib; first compound 0.03162 µM) of the same cell line?
**A.** The relative viability was 0.978.

**Q.** What about the relative viability (Linifanib + Bortezomib; first compound 0.1 µM) of the same cell line?
**A.** Its relative viability is 1.15.

**Q.** What about the relative viability (Linifanib + Bortezomib; first compound 0.3162 µM) of the same cell line?
**A.** The relative viability was 1.07.

**Q.** And the relative viability (Linifanib + Lapatinib; first compound 0.03162 µM)?
**A.** Its relative viability is 1.12.

**Q.** And the relative viability (Linifanib + Lapatinib; first compound 0.1 µM)?
**A.** Its relative viability is 1.19.

**Q.** And the relative viability (Linifanib + Lapatinib; first compound 0.3162 µM)?
**A.** The relative viability was 1.

**Q.** What about the relative viability (Linifanib + Crizotinib; first compound 0.03162 µM) of the same cell line?
**A.** The relative viability was 0.815.

**Q.** What about the relative viability (Linifanib + Crizotinib; first compound 0.1 µM) of the same cell line?
**A.** The relative viability was 0.768.

**Q.** What about the relative viability (Linifanib + Crizotinib; first compound 0.3162 µM) of the same cell line?
**A.** Its relative viability is 0.826.

**Q.** What about the relative viability (Linifanib + Navitoclax; first compound 0.03162 µM) of the same cell line?
**A.** The relative viability was 0.888.

**Q.** And the relative viability (Linifanib + Navitoclax; first compound 0.1 µM)?
**A.** Its relative viability is 0.863.

**Q.** And the relative viability (Linifanib + Navitoclax; first compound 0.3162 µM)?
**A.** The relative viability was 0.873.

**Q.** And the relative viability (Linifanib; 0.03162 µM)?
**A.** Its relative viability is 1.05.

**Q.** And the relative viability (Linifanib; 0.1 µM)?
**A.** Its relative viability is 1.05.

**Q.** What about the relative viability (Linifanib; 0.3162 µM) of the same cell line?
**A.** The relative viability was 0.995.

Source: the supplement of paper PMC10307832
